Laboratory results: the supplement of paper PMC11208160

Assay: recombinant barcode read abundance after kanamycin selection (control-corrected) (log10(CPM+1)); higher = more efficient recombination; sequences stand for … in AGTGCAGAGAAAATCGGCCAGTTTTCTCTGCCTGCAGTCCGCATGCCGT…AGATTTATGCAGCGGACTGCCTTTCTCCCAAAGTGATAAACCGGACAGTATCATGGACCGGTTTTCCCGGTAATCCGTATTTGCAAGGTTGGTTTCACT; site = the 11-nt target
Outline: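 A promoter, a target, a barcode and the first 104 bridge RNA bases under J23119 made up each oligo. Oligos were Gibson-cloned into a vector bearing the other 73 bp and a T7-inducible recombinase, then co-electroporated into E. coli with a donor plasmid and plated in duplicate on chloramphenicol/ampicillin LB agar (control) or chloramphenicol/ampicillin/kanamycin with 0.1 mM IPTG. Recombination efficiency is the averaged, control-corrected counts per million of recombinant-junction barcodes. Reported values are log10(CPM+1).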
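Note: IS621 recombinase and bridge RNA in Escherichia coli cells.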

Sequence	recombinant barcode read abundance (log10)
GAGCAAACTTGGGTTCTAACCTGTTGCCT (site GAGCAAACTAG)	1.2
GAGCAAACTTGGGTTCTAACCTGTTGCCT (site GATCAATCTAG)	0.16
GAGCATACTTGGGTTCTAACCTGTTGCCT (site GAGCATACTAG)	1.62
GAGCATACTTGGGTTCTAACCTGTTGCCT (site GAGGGTACTAG)	0.0325
GAGCCACCTTGGGTTCTAACCTGTTGCCT (site AAGCCACCTAG)	0.868
GAGCCACCTTGGGTTCTAACCTGTTGCCT (site CAGCCACCTAG)	0.236
GAGCCACCTTGGGTTCTAACCTGTTGCCT (site GAGCCACCTAG)	1.48
GAGCCACCTTGGGTTCTAACCTGTTGCCT (site TAGCCACCTAG)	0.911
GAGCCGGCTTGGGTTCTAACCTGTTGCTT (site GAGACGGCTAA)	0.0584
GAGCCGGCTTGGGTTCTAACCTGTTGCTT (site GAGCCGGCTAA)	1.32
GAGCCGGCTTGGGTTCTAACCTGTTGCTT (site GAGGCGGCTAA)	0.3
GAGCCGGCTTGGGTTCTAACCTGTTGCTT (site GAGTCGGCTAA)	0.337
GAGCGAGCTTGGGTTCTAACCTGTTGCGG (site GAGCGAGCTCA)	0.0195
GAGCGAGCTTGGGTTCTAACCTGTTGCGG (site GAGCGAGCTCC)	1.13
GAGCGAGCTTGGGTTCTAACCTGTTGCGG (site GAGCGAGCTCG)	0.196
GAGCGAGCTTGGGTTCTAACCTGTTGCGG (site GAGCGAGCTCT)	1.07
GAGCGAGCTTGGGTTCTAACCTGTTGCTG (site GAGCGAGCTCA)	1.5
GAGCGAGCTTGGGTTCTAACCTGTTGCTG (site GAGCGAGCTCC)	0.41
GAGCGAGCTTGGGTTCTAACCTGTTGCTG (site GAGCGAGCTCG)	0.529
GAGCGAGCTTGGGTTCTAACCTGTTGCTG (site GAGCGAGCTCT)	1.25
GAGCGCTCTTGGGTTCTAACCTGTTGCAG (site GAGCGCTCTCT)	1.42
GAGCGCTCTTGGGTTCTAACCTGTTGCAG (site GAGTGCTCTCT)	0.0694

Sequence	recombinant barcode read abundance (log10)
GAGCGTCCTTGGGTTCTAACCTGTTGCAG (site GAGCGTCCTCT)	1.26
GAGCGTCCTTGGGTTCTAACCTGTTGCAG (site GAGTTTCCTCT)	0.0296
GAGCGTCCTTGGGTTCTAACCTGTTGCCG (site CAGTGTCCTCG)	0.0924
GAGCGTCCTTGGGTTCTAACCTGTTGCCG (site GAGCGTCCTCG)	0.739
GAGCGTTCTTGGGTTCTAACCTGTTGCCT (site GAGCGCTCTCG)	0.199
GAGCGTTCTTGGGTTCTAACCTGTTGCCT (site GAGCGTTCTAG)	1.47
GAGCTACCTTGGGTTCTAACCTGTTGCCC (site GAGCTACCTAG)	1.48
GAGCTACCTTGGGTTCTAACCTGTTGCCC (site GAGCTACCTCG)	0.199
GAGCTACCTTGGGTTCTAACCTGTTGCCC (site GAGCTACCTGG)	1.72
GAGCTACCTTGGGTTCTAACCTGTTGCCC (site GAGCTACCTTG)	0.85
GAGCTAGCTTGGGTTCTAACCTGTTGCGT (site GAGCTAGCTAC)	2.41
GAGCTAGCTTGGGTTCTAACCTGTTGCGT (site GAGCTAGCTGC)	0.155
GAGGACTCTTGGGTTCTAACCTGTTGCCG (site GAGGACTCTAG)	2.41
GAGGACTCTTGGGTTCTAACCTGTTGCCG (site GAGGACTCTCG)	2.32
GAGGACTCTTGGGTTCTAACCTGTTGCCG (site GAGGACTCTGG)	0.458
GAGGACTCTTGGGTTCTAACCTGTTGCCG (site GAGGACTCTTG)	0.476
GAGGCTACTTGGGTTCTAACCTGTTGCAT (site ACAAGGGCTCA)	0.0274
GAGGCTACTTGGGTTCTAACCTGTTGCAT (site GAGGCTACTAT)	1.26
GAGGCTCCTTGGGTTCTAACCTGTTGCCC (site GAGGCTCCTAG)	0.372
GAGGCTCCTTGGGTTCTAACCTGTTGCCC (site GAGGCTCCTCG)	0.174
GAGGCTCCTTGGGTTCTAACCTGTTGCCC (site GAGGCTCCTGG)	1.26
GAGGCTCCTTGGGTTCTAACCTGTTGCCC (site GAGGCTCCTTG)	0.104

Sequence	recombinant barcode read abundance (log10)
GAGGGCACTTGGGTTCTAACCTGTTGCCA (site GAGAGCACTTG)	0.074
GAGGGCACTTGGGTTCTAACCTGTTGCCA (site GAGGGCACTTG)	0.917
GAGGGCCCTTGGGTTCTAACCTGTTGCTG (site GAGGGCCCTCA)	2.8
GAGGGCCCTTGGGTTCTAACCTGTTGCTG (site GAGGGCCCTCC)	0.808
GAGGGCCCTTGGGTTCTAACCTGTTGCTG (site GAGGGCCCTCG)	2.03
GAGGGCCCTTGGGTTCTAACCTGTTGCTG (site GAGGGCCCTCT)	1.56
GAGGGCTCTTGGGTTCTAACCTGTTGCGG (site AGTTCACCTTA)	0.0921
GAGGGCTCTTGGGTTCTAACCTGTTGCGG (site GAGGGCTCTCC)	2.73
GAGGGGTCTTGGGTTCTAACCTGTTGCAC (site CAGGCGTCTGT)	0.122
GAGGGGTCTTGGGTTCTAACCTGTTGCAC (site GAGGGGTCTGT)	2.81
GAGGGTCCTTGGGTTCTAACCTGTTGCAT (site GAGGGTCCTAA)	0.573
GAGGGTCCTTGGGTTCTAACCTGTTGCAT (site GAGGGTCCTAC)	0.542
GAGGGTCCTTGGGTTCTAACCTGTTGCAT (site GAGGGTCCTAG)	1.65
GAGGGTCCTTGGGTTCTAACCTGTTGCAT (site GAGGGTCCTAT)	2.74
GAGGTAACTTGGGTTCTAACCTGTTGCAC (site GAGGTAACTGT)	1.66
GAGGTAACTTGGGTTCTAACCTGTTGCAC (site TGTACGCCTAG)	0.0446
GAGGTAACTTGGGTTCTAACCTGTTGCCT (site GAAGTAACTAG)	0.0669
GAGGTAACTTGGGTTCTAACCTGTTGCCT (site GACGTAACTAG)	1.23
GAGGTAACTTGGGTTCTAACCTGTTGCCT (site GAGGTAACTAG)	0.0487
GAGGTAACTTGGGTTCTAACCTGTTGCCT (site GATGTAACTAG)	0.822
GAGTACTCTTGGGTTCTAACCTGTTGCTA (site GAGTACTCTTA)	1.8
GAGTACTCTTGGGTTCTAACCTGTTGCTA (site GAGTCTTCTTA)	0.00735

Sequence	recombinant barcode read abundance (log10)
GAGTAGTCTTGGGTTCTAACCTGTTGCTT (site GAGTAGACTAA)	0.941
GAGTAGTCTTGGGTTCTAACCTGTTGCTT (site GAGTAGTCTAA)	2.05
GAGTCGTCTTGGGTTCTAACCTGTTGCTT (site GAGCCATCTAA)	0.402
GAGTCGTCTTGGGTTCTAACCTGTTGCTT (site GAGTCGTCTAA)	1.45
GAGTGAACTTGGGTTCTAACCTGTTGCCA (site GAGTGAACTTG)	0.849
GAGTGAACTTGGGTTCTAACCTGTTGCCA (site GTGTGTACTTG)	0.435
GAGTGCCCTTGGGTTCTAACCTGTTGCTT (site GAGTGCCCTAA)	0.78
GAGTGCCCTTGGGTTCTAACCTGTTGCTT (site GTGTGGCCTAA)	0.128
GAGTGGCCTTGGGTTCTAACCTGTTGCAT (site GAGTGGCCTAA)	0.242
GAGTGGCCTTGGGTTCTAACCTGTTGCAT (site GAGTGGCCTAC)	0.385
GAGTGGCCTTGGGTTCTAACCTGTTGCAT (site GAGTGGCCTAG)	0.318
GAGTGGCCTTGGGTTCTAACCTGTTGCAT (site GAGTGGCCTAT)	0.883
GAGTGGCCTTGGGTTCTAACCTGTTGCGG (site GAGTAGCCTCC)	0.831
GAGTGGCCTTGGGTTCTAACCTGTTGCGG (site GAGTCGCCTCC)	0.0473
GAGTGGCCTTGGGTTCTAACCTGTTGCGG (site GAGTGGCCTCC)	1.84
GAGTGGCCTTGGGTTCTAACCTGTTGCGG (site GAGTTGCCTCC)	0.00446
GAGTGGCCTTGGGTTCTAACCTGTTGCTT (site GAGTGGCCTAA)	1.54
GAGTGGCCTTGGGTTCTAACCTGTTGCTT (site GAGTGGCCTAC)	0.494
GAGTGGCCTTGGGTTCTAACCTGTTGCTT (site GAGTGGCCTAG)	0.068
GAGTGGCCTTGGGTTCTAACCTGTTGCTT (site GAGTGGCCTAT)	0.541
